Values quoted from earlier work, collected in patent US20110290119A1, “ANTIMICROBIAL ELECTRET WEB” (3M Innovative Properties Company, priority 2009, published 2011).

System: Ps. aeruginosa (gram negative)
Details: known

O=C1OC2(c3cc(I)c(O)c(I)c3Oc3c2cc(I)c(O)c3I)c2c(Cl)c(Cl)c(Cl)c(Cl)c21 [rose bengal, 4,5,6,7-Tetrachloro-3′,6′-dihydroxy-2′,4′,5′,7′-tetraiodo-3H-spiro[isobenzofuran-1,9′-xanthen]-3-one]
microbial load reduction: not particularly effective
